Target: TcMIP (Trypanosoma cruzi, UniProt Q09734)
Experiment: biochemical

TcMIP, sequence (Q09734 30-196 limits assumed): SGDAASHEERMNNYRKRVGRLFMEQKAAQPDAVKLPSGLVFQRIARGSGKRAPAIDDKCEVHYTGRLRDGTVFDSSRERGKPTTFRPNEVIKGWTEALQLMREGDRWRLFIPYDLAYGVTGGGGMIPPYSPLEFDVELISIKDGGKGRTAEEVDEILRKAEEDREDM

Compound | Kd [nM]
O=C1[C@@H]2CCC[C@H]([C@@H](CO)CN1Cc1ccccn1)N2S(=O)(=O)c1cc(Cl)cc(Cl)c1 [JK095, (1S,5S,6R)-10-((3,5-dichlorophenyl)sulfonyl)-5-(hydroxymethyl)-3-(pyridin-2-ylmethyl)-3,10-diazabicyclo [4.3.1]decan-2-one] | 599 ± 25.5
C[C@@H](c1ccccn1)N1C[C@H](CO)[C@H]2CCC[C@@H](C1=O)N2S(=O)(=O)c1cc(Cl)cc(Cl)c1 [JK236] | 45.5 ± 9.2
